The source made the active and inactive calls.
What was measured:
[1] = target: Ras and Rab interactor 1/Tyrosine-protein kinase ABL1 (Homo sapiens, UniProt P00519+Q13671); type: functional;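 also: biochemical TR-FRET dose-response test measuring inhibition of binding between Rin1 and Abl proteins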
[2] = blockers of bursicon-stimulated LGR2 cAMP reporter – cell-based, HEK293, CRE-luciferase reporter, cherry pick, set 2, dose response (AID 743343); type: functional;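 also: transfected cells were stimulated with diluted bursicon conditioned medium after compound addition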
[3] = A549 cell cytotoxicity, dose response, cytotoxicity control, plate reader, cherry-pick, antagonist series (AID 743412); type: functional, cell-based
[4] = target: T1, Rac GTPase-activating protein 1 (Homo sapiens, UniProt Q9H0H5); assay: blockers of MgcRacGAP-driven Rac1 GTP hydrolysis – biochemical, ADP Hunter fluorescence, primary and confirmatory, confirmation (AID 624330); type: functional
T1 sequence (Q9H0H5 whole entry): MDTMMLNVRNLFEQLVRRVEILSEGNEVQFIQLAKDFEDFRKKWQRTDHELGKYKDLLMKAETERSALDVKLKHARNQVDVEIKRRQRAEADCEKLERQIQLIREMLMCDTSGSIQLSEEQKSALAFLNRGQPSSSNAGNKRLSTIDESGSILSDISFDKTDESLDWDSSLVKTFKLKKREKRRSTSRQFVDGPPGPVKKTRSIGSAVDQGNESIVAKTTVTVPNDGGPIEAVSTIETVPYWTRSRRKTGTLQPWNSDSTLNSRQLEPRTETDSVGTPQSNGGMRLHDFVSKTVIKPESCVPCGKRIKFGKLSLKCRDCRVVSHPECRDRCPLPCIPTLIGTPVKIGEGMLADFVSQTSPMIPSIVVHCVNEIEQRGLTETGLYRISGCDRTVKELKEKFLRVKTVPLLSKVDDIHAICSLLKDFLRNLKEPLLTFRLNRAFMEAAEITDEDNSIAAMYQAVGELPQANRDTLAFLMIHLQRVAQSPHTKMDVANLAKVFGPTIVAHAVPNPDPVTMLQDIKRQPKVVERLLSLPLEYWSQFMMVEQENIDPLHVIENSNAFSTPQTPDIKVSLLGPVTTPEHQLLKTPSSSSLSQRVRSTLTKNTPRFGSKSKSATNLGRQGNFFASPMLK

[5] = toxicity toward HepG2 liver cells – cell-based, plate reader, cherry-pick, antagonist series, cytotoxicity control, dose response (AID 743416); type: functional
[6] = viability loss in HeLa cells – cytotoxicity control for MgcRacGAP inhibitor project, dose response (AID 624300); type: functional
[7] = target: T2, DNA repair and recombination protein RAD54-like (Homo sapiens, UniProt Q92698); assay: RAD54 Holliday junction migration blockers – biochemical, fluorescence, cherry-picked samples, dose series, confirmation (AID 651657); type: functional
T2 sequence (Q92698 whole entry): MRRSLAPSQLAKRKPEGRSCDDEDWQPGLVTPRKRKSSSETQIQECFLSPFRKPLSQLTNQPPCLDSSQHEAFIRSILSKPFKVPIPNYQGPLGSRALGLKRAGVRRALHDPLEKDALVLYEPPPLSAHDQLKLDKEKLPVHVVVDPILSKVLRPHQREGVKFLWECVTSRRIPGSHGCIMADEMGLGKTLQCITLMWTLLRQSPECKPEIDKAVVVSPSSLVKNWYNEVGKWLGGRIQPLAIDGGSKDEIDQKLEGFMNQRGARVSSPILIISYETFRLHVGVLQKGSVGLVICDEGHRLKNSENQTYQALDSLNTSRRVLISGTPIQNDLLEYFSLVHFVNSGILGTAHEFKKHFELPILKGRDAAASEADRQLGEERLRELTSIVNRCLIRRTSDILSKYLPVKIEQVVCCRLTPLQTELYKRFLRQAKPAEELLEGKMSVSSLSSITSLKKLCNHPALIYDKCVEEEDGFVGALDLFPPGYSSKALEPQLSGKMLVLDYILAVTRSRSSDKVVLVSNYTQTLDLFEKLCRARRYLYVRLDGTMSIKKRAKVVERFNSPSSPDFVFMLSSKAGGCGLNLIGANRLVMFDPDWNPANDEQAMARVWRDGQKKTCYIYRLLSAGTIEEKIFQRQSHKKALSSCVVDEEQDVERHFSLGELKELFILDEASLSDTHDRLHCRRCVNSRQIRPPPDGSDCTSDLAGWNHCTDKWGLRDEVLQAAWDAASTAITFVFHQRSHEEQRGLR

[8] = target: 26S proteasome non-ATPase regulatory subunit 14 (Homo sapiens, UniProt O00487); assay: inhibition of proteasome subunit RPN11 – biochemical, fluorescence polarization, uHTS hits, confirmation (AID 602368); type: functional
Prothrombin = Prothrombin (Bos taurus, UniProt P00735); assay: thrombin protease inhibitors – biochemical, fluorescence polarization, uHTS hits, dose response (AID 602369); type: functional
[9] = target: Dual specificity tyrosine-phosphorylation-regulated kinase 1A (Rattus norvegicus, UniProt Q63470); type: biochemical, Homo sapiens
[10] = target: 72 kDa type IV collagenase (Homo sapiens, UniProt P08253); assay: Dose Response validation of uHTS RPN11 inhibitor hits using a MMP-2 Fluorescence assay.; type: functional
[11] = target: DNA (cytosine-5)-methyltransferase 1 (Homo sapiens, UniProt P26358); assay: inhibition of DNA methylation by DNMT1 – biochemical, fluorescent molecular beacon, confirmation (AID 602386); type: functional
Streptokinase A = target: T3, Streptokinase A (Streptococcus pyogenes serotype M1, UniProt P10520); assay: viability-normalized secreted streptokinase activity reduction – plasminogen activation absorbance, OD405, dose response (AID 1914); type: functional, Streptococcus pyogenes M1 GAS;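 also: secreted streptokinase activity via plasminogen activation per viability signal from cell pellet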
T3 sequence (P10520 whole entry): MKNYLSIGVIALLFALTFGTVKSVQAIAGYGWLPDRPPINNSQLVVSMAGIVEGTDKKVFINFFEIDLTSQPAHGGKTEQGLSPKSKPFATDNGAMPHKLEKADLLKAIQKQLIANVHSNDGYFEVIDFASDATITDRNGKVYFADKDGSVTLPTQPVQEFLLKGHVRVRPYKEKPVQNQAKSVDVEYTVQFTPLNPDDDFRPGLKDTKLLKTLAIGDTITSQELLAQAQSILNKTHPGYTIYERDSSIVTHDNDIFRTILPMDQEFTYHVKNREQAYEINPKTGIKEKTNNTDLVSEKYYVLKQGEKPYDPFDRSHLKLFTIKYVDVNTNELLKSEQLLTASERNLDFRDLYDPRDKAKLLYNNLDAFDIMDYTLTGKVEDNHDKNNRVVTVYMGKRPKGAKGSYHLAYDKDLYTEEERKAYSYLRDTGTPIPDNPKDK

Streptococcus = assay: GAS UMAA2166 growth inhibition – luminescence, BacTiterGlo, counter-screen for streptokinase expression inhibitor project, dose response (AID 1915); type: functional, organism-based;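 also: potency for reduction of bacterial viability or growth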
[12] = system: Streptococcus sp. 'group A'; assay: Streptococcus pyogenes SK(-)GAS viability under kanamycin – luminescence, BacTiterGlo, confirmation, counter-screen for streptokinase expression inhibitor project, dose response (AID 1900); type: functional, organism-based
[13] = target: T4, Trace amine-associated receptor 1 (Homo sapiens, UniProt Q96RJ0); assay: Fluorescence-based cell-based high throughput dose response assay to identify agonists of the human trace amine associated receptor 1 (TAAR1).; type: functional
T4 sequence (Q96RJ0 whole entry): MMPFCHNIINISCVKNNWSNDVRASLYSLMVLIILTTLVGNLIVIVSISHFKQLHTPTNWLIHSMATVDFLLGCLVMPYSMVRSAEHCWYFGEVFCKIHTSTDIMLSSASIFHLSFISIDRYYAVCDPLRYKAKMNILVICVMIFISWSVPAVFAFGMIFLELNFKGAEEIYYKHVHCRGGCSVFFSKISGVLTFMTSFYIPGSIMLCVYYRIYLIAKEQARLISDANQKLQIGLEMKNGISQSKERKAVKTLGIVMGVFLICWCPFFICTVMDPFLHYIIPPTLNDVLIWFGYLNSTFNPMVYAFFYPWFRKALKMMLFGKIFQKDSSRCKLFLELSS

cells [14] = type: functional, cell-based
cells [15] = type: functional, cell-based; remark: listed apart in the source
[16] = target: T4, Trace amine-associated receptor 1; assay: Counterscreen for agonists of the human trace amine associated receptor 1 (hTAAR1): Fluorescence-based cell-based high throughput dose response assay to identify hTAAR1 agonist that also desensitize TAAR1 receptor response.; type: functional
[17] = target: T5, DNA repair protein RAD52 homolog (Homo sapiens, UniProt P43351); type: functional, biochemical
T5 sequence (P43351 whole entry): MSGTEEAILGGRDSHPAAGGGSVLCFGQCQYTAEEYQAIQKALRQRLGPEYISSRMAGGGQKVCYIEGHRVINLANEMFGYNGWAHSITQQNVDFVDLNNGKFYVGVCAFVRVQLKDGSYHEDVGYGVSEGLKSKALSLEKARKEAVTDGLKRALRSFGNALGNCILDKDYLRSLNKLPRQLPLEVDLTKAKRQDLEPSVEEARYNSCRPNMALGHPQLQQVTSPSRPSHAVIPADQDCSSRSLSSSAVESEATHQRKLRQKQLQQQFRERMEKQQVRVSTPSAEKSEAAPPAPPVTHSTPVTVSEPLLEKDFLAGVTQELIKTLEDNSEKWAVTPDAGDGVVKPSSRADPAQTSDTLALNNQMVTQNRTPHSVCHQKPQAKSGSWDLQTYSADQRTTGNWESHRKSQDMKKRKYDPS

[18] = target: T6, Hepatocyte nuclear factor 4-alpha (Homo sapiens, UniProt P41235); type: functional, cell-based;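 also: biochemical luminescence-based dose-response counterscreen measuring inhibition of HNF4 dimerization, run alongside a screen for blockers of ABHD5–perilipin-5 interaction; split luciferase complementation of HNF4 fusion proteins in cell lysate measuring dimerization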
T6 sequence (P41235 whole entry): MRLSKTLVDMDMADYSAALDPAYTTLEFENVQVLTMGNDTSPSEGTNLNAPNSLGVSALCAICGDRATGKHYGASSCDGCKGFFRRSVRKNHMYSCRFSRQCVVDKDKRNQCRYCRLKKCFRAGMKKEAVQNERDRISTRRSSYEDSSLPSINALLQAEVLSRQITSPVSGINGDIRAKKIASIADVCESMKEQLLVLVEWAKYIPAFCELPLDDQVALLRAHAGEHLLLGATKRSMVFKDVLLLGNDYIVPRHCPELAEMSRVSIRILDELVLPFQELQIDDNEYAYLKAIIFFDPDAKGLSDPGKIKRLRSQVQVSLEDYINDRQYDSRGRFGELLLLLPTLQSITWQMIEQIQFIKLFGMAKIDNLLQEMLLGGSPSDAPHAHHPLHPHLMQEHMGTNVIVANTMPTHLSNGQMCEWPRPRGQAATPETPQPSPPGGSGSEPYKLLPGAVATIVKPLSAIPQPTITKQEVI

[19] = general mammalian cell viability loss – inhibitor set, cherry-pick, set 2, cytotoxicity control for miR-122 modulator project, dose response (AID 720697); type: functional, cell-based
[20] = target: T7, Heat shock factor protein 1 (Mus musculus, UniProt P38532); assay: decrease of HSF1-responsive luciferase luminescence – cell-based, NIH3T3, dose retest, confirmation (AID 2382); type: functional;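 also: NIH3T3 fibroblasts with HSF1-driven luciferase reporter stressed by proteasome inhibitor MG132; luminescence from HSF1-driven luciferase expression after 8 hours of MG132 stress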
T7 sequence (P38532 whole entry): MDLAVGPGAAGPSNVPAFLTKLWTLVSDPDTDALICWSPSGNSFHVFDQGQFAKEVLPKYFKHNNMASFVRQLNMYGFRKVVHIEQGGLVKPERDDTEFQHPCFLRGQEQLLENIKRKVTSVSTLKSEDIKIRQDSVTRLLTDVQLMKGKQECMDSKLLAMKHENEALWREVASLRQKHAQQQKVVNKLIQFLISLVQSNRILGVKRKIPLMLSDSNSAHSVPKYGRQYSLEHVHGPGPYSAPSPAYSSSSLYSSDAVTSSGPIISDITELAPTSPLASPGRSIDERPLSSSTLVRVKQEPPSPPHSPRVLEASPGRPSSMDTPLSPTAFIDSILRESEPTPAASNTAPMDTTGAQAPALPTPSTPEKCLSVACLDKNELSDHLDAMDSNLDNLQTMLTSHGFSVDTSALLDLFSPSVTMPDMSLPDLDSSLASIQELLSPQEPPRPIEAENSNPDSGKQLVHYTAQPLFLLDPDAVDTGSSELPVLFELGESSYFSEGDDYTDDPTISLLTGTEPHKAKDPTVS

Ras and Rab interactor 1/Tyrosine-protein kinase ABL1, sequence (P00519 whole entry): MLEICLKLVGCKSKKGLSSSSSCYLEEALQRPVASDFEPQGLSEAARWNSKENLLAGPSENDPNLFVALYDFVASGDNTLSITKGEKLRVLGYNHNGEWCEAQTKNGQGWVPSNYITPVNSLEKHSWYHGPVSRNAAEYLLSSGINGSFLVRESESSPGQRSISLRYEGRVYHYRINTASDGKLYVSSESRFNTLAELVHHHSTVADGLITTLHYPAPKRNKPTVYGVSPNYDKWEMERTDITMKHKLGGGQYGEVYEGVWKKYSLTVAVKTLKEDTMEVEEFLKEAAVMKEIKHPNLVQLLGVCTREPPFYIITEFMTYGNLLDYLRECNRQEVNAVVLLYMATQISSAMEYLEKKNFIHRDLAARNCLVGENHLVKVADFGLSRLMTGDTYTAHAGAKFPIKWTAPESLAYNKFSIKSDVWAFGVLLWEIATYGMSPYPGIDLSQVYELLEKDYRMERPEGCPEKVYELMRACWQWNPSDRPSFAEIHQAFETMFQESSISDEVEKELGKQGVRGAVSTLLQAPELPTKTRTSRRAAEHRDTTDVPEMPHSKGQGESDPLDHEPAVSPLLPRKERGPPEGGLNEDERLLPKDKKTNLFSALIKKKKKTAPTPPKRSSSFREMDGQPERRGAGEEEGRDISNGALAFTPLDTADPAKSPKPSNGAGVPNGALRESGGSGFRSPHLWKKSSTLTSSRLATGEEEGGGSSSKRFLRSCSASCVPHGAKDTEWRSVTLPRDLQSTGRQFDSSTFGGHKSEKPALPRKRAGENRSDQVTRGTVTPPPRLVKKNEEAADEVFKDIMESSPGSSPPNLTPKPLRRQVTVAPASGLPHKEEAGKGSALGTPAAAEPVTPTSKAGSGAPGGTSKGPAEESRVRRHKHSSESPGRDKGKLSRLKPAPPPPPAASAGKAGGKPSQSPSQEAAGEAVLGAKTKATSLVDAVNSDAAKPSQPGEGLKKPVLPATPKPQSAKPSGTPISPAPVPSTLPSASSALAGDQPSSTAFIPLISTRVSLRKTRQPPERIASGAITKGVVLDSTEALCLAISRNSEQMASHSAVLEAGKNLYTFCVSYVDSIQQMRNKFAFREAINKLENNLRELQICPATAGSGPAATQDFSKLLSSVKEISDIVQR
Ras and Rab interactor 1/Tyrosine-protein kinase ABL1, sequence (Q13671 whole entry): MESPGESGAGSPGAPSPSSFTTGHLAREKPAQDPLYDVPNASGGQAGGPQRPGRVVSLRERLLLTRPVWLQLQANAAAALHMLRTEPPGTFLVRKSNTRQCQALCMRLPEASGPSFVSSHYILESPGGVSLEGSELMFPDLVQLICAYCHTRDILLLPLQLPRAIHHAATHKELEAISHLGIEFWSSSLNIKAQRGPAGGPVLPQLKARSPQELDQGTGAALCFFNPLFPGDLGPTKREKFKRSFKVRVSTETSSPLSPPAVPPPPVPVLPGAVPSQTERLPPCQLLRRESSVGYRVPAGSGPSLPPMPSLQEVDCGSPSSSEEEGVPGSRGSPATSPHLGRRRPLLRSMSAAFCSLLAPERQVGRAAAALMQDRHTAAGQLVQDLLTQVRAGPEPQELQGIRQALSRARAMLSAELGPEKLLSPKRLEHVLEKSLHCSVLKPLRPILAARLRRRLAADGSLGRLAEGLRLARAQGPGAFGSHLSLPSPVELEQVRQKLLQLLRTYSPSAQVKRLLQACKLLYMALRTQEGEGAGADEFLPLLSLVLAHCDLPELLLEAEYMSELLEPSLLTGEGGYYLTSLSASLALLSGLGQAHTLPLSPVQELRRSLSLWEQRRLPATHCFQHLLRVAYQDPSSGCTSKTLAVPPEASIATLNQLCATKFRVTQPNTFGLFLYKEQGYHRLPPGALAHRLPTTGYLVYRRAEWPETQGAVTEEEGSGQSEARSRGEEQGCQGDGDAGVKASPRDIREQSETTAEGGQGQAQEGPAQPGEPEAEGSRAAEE
26S proteasome non-ATPase regulatory subunit 14, sequence (O00487 whole entry): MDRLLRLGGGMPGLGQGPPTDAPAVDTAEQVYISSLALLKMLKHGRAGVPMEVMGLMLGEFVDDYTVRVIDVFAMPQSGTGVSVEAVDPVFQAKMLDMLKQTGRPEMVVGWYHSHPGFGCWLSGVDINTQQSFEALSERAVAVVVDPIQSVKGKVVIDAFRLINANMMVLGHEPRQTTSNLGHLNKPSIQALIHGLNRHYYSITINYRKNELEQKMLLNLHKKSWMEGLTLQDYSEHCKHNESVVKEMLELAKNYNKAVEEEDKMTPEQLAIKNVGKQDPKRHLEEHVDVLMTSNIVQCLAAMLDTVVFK
72 kDa type IV collagenase, sequence (P08253 whole entry): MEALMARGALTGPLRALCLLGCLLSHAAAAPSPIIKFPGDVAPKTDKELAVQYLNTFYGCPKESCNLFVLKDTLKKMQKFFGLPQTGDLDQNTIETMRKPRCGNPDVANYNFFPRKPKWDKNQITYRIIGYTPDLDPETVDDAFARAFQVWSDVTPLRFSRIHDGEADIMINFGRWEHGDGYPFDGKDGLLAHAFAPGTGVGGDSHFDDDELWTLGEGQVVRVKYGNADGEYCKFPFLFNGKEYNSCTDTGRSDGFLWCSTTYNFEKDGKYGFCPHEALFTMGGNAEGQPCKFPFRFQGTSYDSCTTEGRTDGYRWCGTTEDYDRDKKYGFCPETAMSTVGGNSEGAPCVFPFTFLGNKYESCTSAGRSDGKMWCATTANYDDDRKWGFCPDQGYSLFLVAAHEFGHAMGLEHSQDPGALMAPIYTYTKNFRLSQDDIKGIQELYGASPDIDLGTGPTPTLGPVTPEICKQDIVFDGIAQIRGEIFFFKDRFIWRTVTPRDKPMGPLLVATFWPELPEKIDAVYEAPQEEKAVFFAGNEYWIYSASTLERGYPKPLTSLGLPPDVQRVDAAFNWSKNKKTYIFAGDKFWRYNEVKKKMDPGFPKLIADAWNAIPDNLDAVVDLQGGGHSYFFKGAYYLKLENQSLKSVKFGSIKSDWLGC
DNA (cytosine-5)-methyltransferase 1, sequence (P26358 whole entry): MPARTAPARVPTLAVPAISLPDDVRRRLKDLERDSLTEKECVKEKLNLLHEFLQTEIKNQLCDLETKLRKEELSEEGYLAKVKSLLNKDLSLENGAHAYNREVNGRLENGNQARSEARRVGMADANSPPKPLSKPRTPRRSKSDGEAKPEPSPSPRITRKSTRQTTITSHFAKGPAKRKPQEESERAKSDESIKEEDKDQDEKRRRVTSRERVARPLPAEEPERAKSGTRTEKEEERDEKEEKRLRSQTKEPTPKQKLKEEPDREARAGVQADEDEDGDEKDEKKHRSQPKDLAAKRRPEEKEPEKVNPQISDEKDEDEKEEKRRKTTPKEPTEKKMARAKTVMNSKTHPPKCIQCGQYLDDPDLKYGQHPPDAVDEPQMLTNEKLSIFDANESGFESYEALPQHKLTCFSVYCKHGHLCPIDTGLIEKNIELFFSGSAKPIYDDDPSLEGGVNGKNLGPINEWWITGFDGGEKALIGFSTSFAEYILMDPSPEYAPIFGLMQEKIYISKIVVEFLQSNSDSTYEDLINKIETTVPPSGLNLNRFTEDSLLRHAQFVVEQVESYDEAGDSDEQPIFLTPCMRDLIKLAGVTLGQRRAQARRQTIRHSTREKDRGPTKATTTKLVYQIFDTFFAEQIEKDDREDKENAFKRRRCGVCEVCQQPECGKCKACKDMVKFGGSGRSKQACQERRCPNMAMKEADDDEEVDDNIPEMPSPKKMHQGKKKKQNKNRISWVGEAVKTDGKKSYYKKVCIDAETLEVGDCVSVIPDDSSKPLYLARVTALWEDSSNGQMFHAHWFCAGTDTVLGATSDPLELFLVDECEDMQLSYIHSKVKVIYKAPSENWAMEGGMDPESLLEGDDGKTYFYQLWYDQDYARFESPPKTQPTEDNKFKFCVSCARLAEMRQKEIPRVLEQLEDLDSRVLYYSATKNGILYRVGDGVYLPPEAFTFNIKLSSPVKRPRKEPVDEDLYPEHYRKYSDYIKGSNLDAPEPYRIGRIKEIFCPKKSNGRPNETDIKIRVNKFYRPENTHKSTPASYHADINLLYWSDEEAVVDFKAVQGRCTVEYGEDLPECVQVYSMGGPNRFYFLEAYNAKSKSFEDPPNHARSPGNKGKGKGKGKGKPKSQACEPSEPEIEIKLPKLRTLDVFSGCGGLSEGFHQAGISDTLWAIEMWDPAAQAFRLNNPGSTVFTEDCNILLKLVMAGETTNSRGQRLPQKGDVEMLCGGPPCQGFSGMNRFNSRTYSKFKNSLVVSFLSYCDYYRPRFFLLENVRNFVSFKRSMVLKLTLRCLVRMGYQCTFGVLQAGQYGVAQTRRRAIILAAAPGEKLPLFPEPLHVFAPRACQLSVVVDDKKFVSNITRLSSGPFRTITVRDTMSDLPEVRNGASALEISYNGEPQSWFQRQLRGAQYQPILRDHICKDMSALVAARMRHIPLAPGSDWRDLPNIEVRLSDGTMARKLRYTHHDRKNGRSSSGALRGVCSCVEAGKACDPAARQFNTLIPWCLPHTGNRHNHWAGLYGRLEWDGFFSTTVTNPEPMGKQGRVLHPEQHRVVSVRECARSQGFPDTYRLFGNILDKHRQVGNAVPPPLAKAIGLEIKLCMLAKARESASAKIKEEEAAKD

## COC(=O)CCSCc1cn2cc(Cl)ccc2n1
[1]
  IC50: 8.83 µM (active)

## Oc1ccc(-c2csc(-c3cccnc3)n2)c(O)c1
[2]
  AC50: 44.3 µM (active)
[3]
  AC50: 23.6 µM (active)
[4]
  IC50: 30.9 µM (active)
[5]
  AC50: 42.4 µM (active)
[6]
  CC50: 100 µM (active)

## CCOc1ccccc1N(C(=O)c1snc(C(N)=O)c1N)C(C(=O)NCC1CCCO1)c1ccc2ncccc2c1 (stereo unspecified)
[1]
  IC50: 25.1 µM (inactive)

## O=C(Nc1cccc([N+](=O)[O-])c1)c1cc(S(=O)(=O)N2CCOCC2)cs1
[7]
  AC50: 21.8 µM (active)

## COc1cc(/C=C2\SC(N)=NC2=O)cc(Cl)c1O
[8]
  IC50: 26.8 µM (active)
[4]
  IC50: 43.6 µM (active)
Prothrombin
  IC50: 32.8 µM (active)
[9]
  AC50: 18.6 µM (active)
[10]
  IC50: > 100 µM (inactive)

## COc1ccc(-c2nn(-c3ccccc3)cc2/C=C2/SC(=S)N(CCC(=O)O)C2=O)cc1
[11]
  IC50: 5.06 µM (active)
Streptokinase A
  EC50: > 150 µM (not active)
Streptococcus
  EC50: 4.88 µM (active)
[12]
  EC50: 2.14 µM (active)

## Cc1cc(C(=O)CSc2nnnn2-c2ccccc2)c(C)n1CCc1ccccc1
[13]
  EC50: 3.4 µM (active)
Cells [14]
  EC50: > 29.9 µM (inactive)
Cells [15]
  IC50: > 29.9 µM (inactive)
[16]
  IC50: 6.28 µM (active)

## COCCN(CCOC)C(=O)CSc1ccc(S(=O)(=O)N2CCN(C)CC2)cn1
[1]
  IC50: 20.5 µM (inactive)

## CC(=O)Nc1cc(-c2ccc(N3CCN(C)CC3)cc2)cn2c(-c3cccc(C(C)=O)c3)cnc12
[17]
  AC50: 4.9 µM (active)
[7]
  AC50: 14.8 µM (active)

## CC(C)(C)NC(=O)C(c1ccccc1)n1c(=O)c(-c2ccco2)nc2ccccc21 (stereo unspecified)
[18]
  IC50: 1.4 µM (active)

## COc1ccc(NC(=O)C(c2ccc(C#N)cc2)n2c(=O)c(-c3ccco3)nc3ccccc32)cc1 (stereo unspecified)
[18]
  IC50: 13.5 µM (inactive)

## COc1cccc(C(=O)N[C@H](C(=O)N2CCC[C@H]2C(=O)NCCc2ccccc2Cl)C(C)C)c1
[13]
  EC50: 1.08 µM (active)
Cells [14]
  EC50: > 29.9 µM (inactive)
Cells [15]
  IC50: > 29.9 µM (inactive)
[16]
  IC50: 2.22 µM (active)

## CCCC(=O)Nc1ccc2c(c1)C(=O)N(C)[C@@H]1CC[C@H](CC(=O)Nc3cn(C)nc3C)O[C@@H]1CO2
[19]
  AC50: 0.499 µM (active)

## C/C(=N\CCc1ccccc1)C1=C(O)SCC1=O
[13]
  EC50: 1.55 µM (active)
Cells [14]
  EC50: > 29.9 µM (inactive)
Cells [15]
  IC50: > 29.9 µM (inactive)
[20]
  EC50: > 195 µM (not active)
[16]
  IC50: 9.57 µM (active)
